Measurements taken from patent US10227315B2, “Mitochondrial uncouplers for treatment of metabolic diseases and cancer” (RUTGERS, THE STATE UNIVERSITY OF NEW JERSEY, priority 2016, dated 2019).

Columns and labels:
[1] = system: mouse myoblast C2C12 cells; assay: Oxygen consumption rate (OCR) assay with Seahorse XF96 or XF24, mitochondrial uncoupling; type: cell-based; settings: 10% fetal bovine serum, in the presence of oligomycin 2.5 μM, read-out: Cmin (minimal concentration to induce ATP synthase-independent OCR increase)
Description: By definition, mitochondrial uncoupling is the decoupling of mitochondrial electron transport chain activity (mitochondrial oxidation) from ATP synthesis by mitochondrial ATP synthase. Technically, mitochondrial uncoupling activity is defined by the ability of a chemical compound to induce oxygen consumption of cells or isolated mitochondria in the presence of a mitochondrial ATP synthase inhibitor such as oligomycin. Accordingly, we determined mitochondrial uncoupling activity by oxygen consumption rate (OCR) assay with a Seahorse XF96 or a Seahorse XF24 instrument following the vendor's instruction, using mouse myoblast C2C12 cells growing in medium containing 10% fetal bovine serum. […] The minimal concentration (Cmin) of each compound under which OCR is induced in the presence of oligomycin, was determined.

[2] = system: NIH-3T3 cells, or HepG2 cells; assay: Mitochondrial membrane potential assay, TMRE staining; type: cell-based; settings: 2 h; two hours treatment, TMRE 100 nM; read-out: EC50, mitochondrial membrane potential reduction (TMRE staining reduced to about 50%)
Description: Mitochondrial uncoupling may also lead to a reduction of mitochondrial membrane potential. We performed mitochondrial membrane potential assay using TMRE (tetramethylrhodamine ethyl ester) staining method with cultured mammalian cells, the NIH-3T3 cells, or HepG2 cells. Cells were seeded onto 6-well plates and cultured in DMEM medium supplemented with 10% fetal bovine serum and 2 mM glutamine. Cells were allowed to grow to logarithmic growth phase prior to experiments. The cells were treated with each individual compound at various concentrations for two hours, followed by staining with TMRE at final concentration of 100 nM for 15 minutes. The cells were then washed once with PBS, and examined under fluorescence microscopy. Cells treated with various concentrations of niclosamide ethanolamine were used as positive control. Reduction of mitochondrial TMRE staining was estimated as a quantification of mitochondrial uncoupling activity. […] The following table (Table II) summarizes the activity of individual compounds in reducing mitochondrial membrane potential in cultured mammalian cells.

SMILES | minimal effective concentration [1] [µM] | EC50 [2] [µM]
O=C(Nc1nc2c(C(F)(F)F)cc(C(F)(F)F)cc2s1)c1cc(Cl)ccc1O [Compound 22, N-(4,6-Bis(trifluoromethyl)benzo[d]thiazol-2-yl)-5-chloro-2-hydroxybenzamide] | < 10 | < 10
O=C(Nc1nc2ccc(C(F)(F)F)cc2s1)c1cc(Cl)cc2nn[nH]c12 [Compound 58, 5-Chloro-N-(6-(trifluoromethyl)benzo[d]thiazol-2-yl)-1H-benzo[d][1,2,3]triazole-7-carboxamide] | > 25 | > 25
Cc1cc(Cl)cc(C(=O)Nc2nc3ccc(OC(F)(F)F)cc3s2)c1O [Compound 51, 5-Chloro-2-hydroxy-3-methyl-N-(6-(trifluoromethoxy)benzo[d]thiazol-2-yl)benzamide] | < 10 | < 10
O=C(Nc1ccc(C(F)(F)F)cc1Cl)c1cc(Cl)ccc1O [Compound 14, 5-Chloro-N-(2-chloro-4-(trifluoromethyl)phenyl)-2-hydroxybenzamide] | < 10 | < 10
CCc1nc2cc(Cl)cc(C(=O)Nc3nc4ccc(C(F)(F)F)cc4s3)c2[nH]1 [Compound 57, 5-Chloro-2-ethyl-N-(6-(trifluoromethyl)benzo[d]thiazol-2-yl)-1H-benzo[d]imidazole-7-carboxamide] | > 25 | –
O=C(Nc1nc2ccc(C(F)(F)F)cc2s1)c1cc(Cl)ccc1O [Compound 33, 5-Chloro-2-hydroxy-N-(6-(trifluoromethyl)benzo[d]thiazol-2-yl)benzamide ethanolamine] | < 10 | < 10
O=C(Nc1nc2ccc(C(F)(F)F)cc2s1)c1cc(Cl)cc(C2CC2)c1O [Compound 36, 5-Chloro-3-cyclopropyl-2-hydroxy-N-(6-(trifluoromethyl)benzo[d]thiazol-2-yl)benzamide] | < 10 | < 10
CS(=O)(=O)NCCc1cc(Cl)cc(C(=O)Nc2nc3ccc(C(F)(F)F)cc3s2)c1O [Compound 3, 5-Chloro-2-hydroxy-3-(2-(methylsulfonamido)ethyl)-N-(6-(trifluoromethyl)benzo[d]thiazol-2-yl)benzamide] | < 10 | –
CN(C)CCc1cc(Cl)cc(C(=O)Nc2nc3ccc(C(F)(F)F)cc3s2)c1O [Compound 2, 5-Chloro-3-(2-(dimethylamino)ethyl)-2-hydroxy-N-(6-(trifluoromethyl)benzo[d]thiazol-2-yl)benzamide] | < 10 | –
O=C(Nc1nc2c(C(F)(F)F)cccc2s1)c1cc(Cl)ccc1O [Compound 32, 5-Chloro-2-hydroxy-N-(4-(trifluoromethyl)benzo[d]thiazol-2-yl)benzamide ethanolamine] | < 10 | < 10
Cc1cc(Cl)cc(C(=O)Nc2nc3cc(C(F)(F)F)ccc3s2)c1O [Compound 41, 5-Chloro-2-hydroxy-3-methyl-N-(5-(trifluoromethyl)benzo[d]thiazol-2-yl)benzamide] | < 10 | < 10
O=C(Nc1ccc([N+](=O)[O-])cc1Cl)c1cc(Cl)ccc1OC(=O)N1CCOCC1 [Compound 13, 4-Chloro-2-((2-chloro-4-nitrophenyl)carbamoyl)phenyl morpholine-4-carboxylate] | < 10 | < 10
Cc1nc2cc(Cl)cc(C(=O)Nc3nc4ccc(C(F)(F)F)cc4s3)c2[nH]1 [Compound 56, 5-Chloro-2-methyl-N-(6-(trifluoromethyl)benzo[d]thiazol-2-yl)-1H-benzo[d]imidazole-7-carboxamide] | < 10 | –
O=C(Nc1nc2c(F)cc(C(F)(F)F)cc2s1)c1cc(Cl)ccc1O [Compound 21, 5-Chloro-N-(4-fluoro-6-(trifluoromethyl)benzo[d]thiazol-2-yl)-2-hydroxybenzamide] | < 10 | < 10
O=C(Nc1ccc(F)cc1Cl)c1cc(Cl)ccc1O [Compound 15, 5-Chloro-N-(2-chloro-4-fluorophenyl)-2-hydroxybenzamide] | < 10 | < 10
O=C(Nc1nc2ccc(C(F)(F)F)cc2s1)c1cc(Cl)cc(CO)c1O [Compound 49, 5-Chloro-2-hydroxy-3-(hydroxymethyl)-N-(6-(trifluoromethyl)benzo[d]thiazol-2-yl)benzamide] | > 25 | > 25
O=C(Nc1nc2cc(C(F)(F)F)ccc2s1)c1cc(Cl)ccc1O [Compound 25, 5-Chloro-2-hydroxy-N-(5-(trifluoromethyl)benzo[d]thiazol-2-yl)benzamide] | > 25 | > 25
CN(C)CCCc1cc(Cl)cc(C(=O)Nc2nc3ccc(C(F)(F)F)cc3s2)c1O [Compound 52, 5-Chloro-3-(3-(dimethylamino)propyl)-2-hydroxy-N-(6-(trifluoromethyl)benzo[d]thiazol-2-yl)benzamide] | < 10 | –
CN(C)Cc1cc(Cl)cc(C(=O)Nc2nc3ccc(C(F)(F)F)cc3s2)c1O [Compound 53, 5-Chloro-3-((dimethylamino)methyl)-2-hydroxy-N-(6-(trifluoromethyl)benzo[d]thiazol-2-yl)benzamide] | < 10 | –
Cc1cc(Cl)cc(C(=O)Nc2nc3c(C(F)(F)F)cc(C(F)(F)F)cc3s2)c1O [Compound 50, N-(4,6-Bis(trifluoromethyl)benzo[d]thiazol-2-yl)-5-chloro-2-hydroxy-3-methylbenzamide] | < 10 | < 10
CN(C)Cc1cc(Cl)cc(C(=O)Nc2nc3ccc(OC(F)(F)F)cc3s2)c1O [Compound 54, 5-Chloro-3-((dimethylamino)methyl)-2-hydroxy-N-(6-(trifluoromethoxy)benzo[d]thiazol-2-yl)benzamide] | < 10 | –
O=C(Nc1nc2c(F)cc(F)cc2s1)c1cc(Cl)cc2nn[nH]c12 [Compound 59, 5-Chloro-N-(4,6-difluorobenzo[d]thiazol-2-yl)-1H-benzo[d][1,2,3]triazole-7-carboxamide] | > 25 | –
N#Cc1ccc(NC(=O)c2cc(Cl)ccc2O)c(Cl)c1 [Compound 16, 5-Chloro-N-(2-chloro-4-cyanophenyl)-2-hydroxybenzamide] | < 10 | < 10
Cc1cc(Cl)cc(C(=O)Nc2nc3cccc(C(F)(F)F)c3s2)c1O [Compound 42, 5-Chloro-2-hydroxy-3-methyl-N-(7-(trifluoromethyl)benzo[d]thiazol-2-yl)benzamide] | > 25 | > 25
Oc1cc(Nc2nc3ccc(C(F)(F)F)cc3s2)c(C(F)(F)F)cc1C(F)(F)F [Compound 9, 2,4-Bis(trifluoromethyl)-5-((6-(trifluoromethyl)benzo[d]thiazol-2-yl)amino)phenol] | > 25 | > 25
Cc1cc(Cl)cc(C(=O)Nc2nc3c(C(F)(F)F)cccc3s2)c1O [Compound 34, 5-Chloro-2-hydroxy-3-methyl-N-(4-(trifluoromethyl)benzo[d]thiazol-2-yl)benzamide ethanolamine] | – | < 10
O=C(Nc1nc2cccc(C(F)(F)F)c2s1)c1cc(Cl)ccc1O [Compound 26, 5-Chloro-2-hydroxy-N-(7-(trifluoromethyl)benzo[d]thiazol-2-yl)benzamide] | > 25 | > 25
O=C(Nc1nc2c(F)cc(F)cc2s1)c1cc(Cl)ccc1O [Compound 35, 5-Chloro-N-(4,6-difluorobenzo[d]thiazol-2-yl)-2-hydroxybenzamide ethanolamine] | – | < 10
Cc1cc(Cl)cc(C(=O)Nc2nc3ccc(C(F)(F)F)cc3s2)c1O [Compound 37, 5-Chloro-2-hydroxy-3-methyl-N-(6-(trifluoromethyl)benzo[d]thiazol-2-yl)benzamide compound with (2R,3R,4R,5S)-6-(methylamino)hexane-1,2,3,4,5-pentaol (1:1)] | – | < 10
O=C(Nc1nc2ccc(C(F)(F)F)cc2s1)c1cc(Cl)cc2nc(C(F)(F)F)[nH]c12 [Compound 8, 5-Chloro-2-(trifluoromethyl)-N-(6-(trifluoromethyl)benzo[d]thiazol-2-yl)-1H-benzo[d]imidazole-7-carboxamide] | 10 to 25 | 10 to 25
